Results as given in patent US20220204449A1, “BIASED AGONISTS OF OPIOID RECEPTORS” (ILDONG PHARMACEUTICAL CO., LTD., priority 2020, published 2022).
pEC50: −log10 of the molar value. Entries after “also recorded” stand apart in the source; their conditions may differ. Read-outs that look alike come from different tables or passages of the source.

Assays:
Assay type in all cases: cell-based
[1] = molecular target: T1, human δ-opioid receptor, OPRD (Homo sapiens, UniProt P41143); test: PathHunter β-arrestin 2 assay, OPRD cell line; details: for β-arrestin pathway activation / bARR2 recruitment, in words: OPRD
T1 construct: host or cells: HEK-293 overexpressing β-arrestin2 fused to a β-galactosidase fragment
Text: (§1) Human embryonic kidney 293 (HEK-293) cells which transfected overexpress (3-arrestin2 fused β-galactosidase fragment were purchased from DiscoverX. Human OPRM1 gene (NM 000914.3, encoding human μ-opioid receptor, OPRM) and Human OPRD1 gene (NM 000911.3, encoding human δ-opioid receptor, OPRD) were fused to a pCMV-ProLink plasmid which contains complementary β-galactosidase fragment purchased from DiscoverX. To generate human OPRM1 or OPRD1 expression cell lines, HEK-293 cells were transfected to prepared plasmid and grown in DMEM medium with 10% fetal bovine serum, 150 μg/mL Hygromycin B and 500 μg/mL G418.
(§2) The PathHunter enzyme assay was performed to measure the agonist's capability of β-arrestin 2 pathway activation. When agonists bind to G protein-coupled receptor (GPCR), the receptor pathway is sequentially activated from G protein to β-arrestin 2 recruitment.
(§3) Because […] β-arrestin 2 and C-terminal of GPCR have a fragment of β-galactosidase, recruitment of β-arrestin 2 to GPCR forms the whole β-galactosidase. The functionality of the whole β-galactosidase is detected by chemiluminescence (FlexStation3, Molecular Devices).
(§4) cAMP and β-arrestin assays described above were conducted to decide whether candidate compounds were μ- and/or δ-opioid receptor bias agonists for the G-protein pathway. All assays produced the concentration-response curve, and the curve data was validated by a quality control factor named Z′ factor. Because half-maximal effect concentration (EC50) depends on the population of receptors, the maximal asymptote of the concentration curve was used. Efficacy data of candidates was normalized by comparison to reference agonists DAMGO and SNC80 for OPRM and OPRD.

[2] = molecular target: T2, human μ-opioid receptor, OPRM (Homo sapiens, UniProt P35372); test: Dominant assay: cAMP assay with/without irreversible antagonist β-FNA, OPRM cell line; details: for maximal response on decreasing receptor population (dominant tendency), in words: OPRM cell lines, β-FNA
T2 construct: host or cells: HEK-293 overexpressing β-arrestin2 fused to a β-galactosidase fragment
Text: (§5) To confirm the agonist's efficacy in a nature-like system, we need inactivation of target receptors on the cell membrane. Most cell lines have an abundant target receptor population (also known as spare receptors). Therefore, agonists have more opportunity to constitute agonist-receptor conformation. In this environment, not only full agonists but also partial agonists can reach maximal response.
(§6) If the partial agonist is selected as a full agonist, translational in vivo research will likely fail.
(§7) Non-competitive, irreversible antagonists can be applicable to judge the pharmacological character of agonists because they permanently decrease the receptor population in the cell line system. β-FNA or β-CNA is used as a non-competitive and irreversible antagonist for OPRM, OPRD. Before cAMP assay, cells were incubated with β-FNA or β-CNA for 40 minutes. Afterwards, the procedure is the same.
(§8) If a partial agonist compound acts as a full agonist due to receptor population (pseudo full agonist), it cannot sustain maximal response with reduced receptor population. However, a full agonist compound maintains their maximal response even though increased EC50.

[3] = molecular target: T1, human δ-opioid receptor, OPRD; test: Dominant assay: cAMP assay with/without irreversible antagonist β-CNA, OPRD cell line; details: for maximal response on decreasing receptor population (dominant tendency), in words: OPRD cell lines, β-CNA
Text: as §5, §6, §7, §8

[4] = molecular target: T2, human μ-opioid receptor, OPRM; test: PathHunter β-arrestin 2 assay, OPRM cell line; details: for OPRM β-ARR2 Emax (%): Example 3, Tables 5-7; for β-arrestin pathway activation / bARR2 recruitment, in words: OPRM
Text: as §1, §2, §3, §4

[5] = addition of β-FNA, Example 3, Tables 5-7, read-out: OPRM Gi β-FNA (+) EC50
[6] = addition of β-FNA, Example 3, Tables 5-7, read-out: OPRM Gi β-FNA (+) Emax (%)
[7] = addition of β-FNA, repeated dominant assay, Example 4, Tables 8-10
[8] = addition of β-FNA, repeated dominant assay, Example 4, Tables 8-10, read-out: OPRM Gi β-FNA (+) EC50
[9] = no addition of β-FNA, Example 3, Tables 5-7, read-out: OPRM Gi β-FNA (−) EC50
[10] = no addition of β-FNA, Example 3, Tables 5-7, read-out: OPRM Gi β-FNA (−) Emax (%)
[11] = no addition of β-FNA, repeated dominant assay, Example 4, Tables 8-10, read-out: OPRM Gi β-FNA (−) EC50
[12] = no addition of β-FNA, repeated dominant assay, Example 4, Tables 8-10, read-out: OPRM Gi β-FNA (−) Emax (%)
[13] = addition of β-CNA, Example 3, Tables 5-7
[14] = addition of β-CNA, repeated dominant assay, Example 4, Tables 8-10
[15] = addition of β-CNA, repeated dominant assay, Example 4, Tables 8-10, read-out: OPRD Gi β-CNA (+) EC50
[16] = no addition of β-CNA, Example 3, Tables 5-7
[17] = no addition of β-CNA, repeated dominant assay, Example 4, Tables 8-10, read-out: OPRD Gi β-CNA (−) EC50
[18] = no addition of β-CNA, repeated dominant assay, Example 4, Tables 8-10, read-out: OPRD Gi β-CNA (−) Emax (%)
[19] = addition of β-FNA, Example 3, Tables 5-7
[20] = no addition of β-FNA, Example 3, Tables 5-7
[21] = no addition of β-FNA, repeated dominant assay, Example 4, Tables 8-10
[22] = addition of β-CNA, Example 3, Tables 5-7, read-out: OPRD Gi β-CNA (+) EC50
[23] = no addition of β-CNA, Example 3, Tables 5-7, read-out: OPRD Gi β-CNA (−) EC50
[24] = no addition of β-CNA, repeated dominant assay, Example 4, Tables 8-10

T2 sequence (P35372 whole entry, the tested form may be a part): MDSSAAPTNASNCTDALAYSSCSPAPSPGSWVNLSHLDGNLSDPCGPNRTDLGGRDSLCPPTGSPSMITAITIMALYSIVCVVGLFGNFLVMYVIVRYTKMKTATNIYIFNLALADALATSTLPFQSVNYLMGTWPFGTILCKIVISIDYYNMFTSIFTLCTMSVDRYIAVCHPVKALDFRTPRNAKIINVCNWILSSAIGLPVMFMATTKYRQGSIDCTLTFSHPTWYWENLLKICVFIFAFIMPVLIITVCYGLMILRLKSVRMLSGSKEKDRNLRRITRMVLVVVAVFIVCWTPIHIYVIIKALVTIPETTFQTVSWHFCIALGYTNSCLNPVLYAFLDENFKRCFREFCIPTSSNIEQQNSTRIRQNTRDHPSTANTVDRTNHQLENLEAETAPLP
T1 sequence (P41143 whole entry, the tested form may be a part): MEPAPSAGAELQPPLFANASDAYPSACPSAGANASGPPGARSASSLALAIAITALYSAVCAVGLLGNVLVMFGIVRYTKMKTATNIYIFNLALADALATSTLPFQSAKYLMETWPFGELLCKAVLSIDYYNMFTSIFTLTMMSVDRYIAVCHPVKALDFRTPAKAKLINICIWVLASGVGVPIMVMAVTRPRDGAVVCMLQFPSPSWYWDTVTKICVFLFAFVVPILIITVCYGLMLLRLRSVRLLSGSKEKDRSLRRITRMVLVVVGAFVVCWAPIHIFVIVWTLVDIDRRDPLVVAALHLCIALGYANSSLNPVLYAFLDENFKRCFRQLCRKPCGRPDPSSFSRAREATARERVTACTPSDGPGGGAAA

SMILES	OPRD β-ARR2 Emax (%) ([1]; Example 3, Tables 5-7)	β-arrestin pathway activation / bARR2 recruitment, in words [1]	maximal response on decreasing receptor population (dominant tendency), in words [2]	pEC50 [2, 5]	Emax [2, 6] [%]	OPRM Gi β-FNA (+) Emax (%) [2, 7] [%]	pEC50 [2, 8]	pEC50 [2, 9]	Emax [2, 10] [%]	pEC50 [2, 11]	Emax [2, 12] [%]	OPRD Gi β-CNA (+) Emax (%) [3, 13] [%]	OPRD Gi β-CNA (+) Emax (%) [3, 14] [%]	pEC50 [3, 15]	OPRD Gi β-CNA (−) Emax (%) [3, 16] [%]	pEC50 [3, 17]	OPRM β-ARR2 Emax (%) [4] [%]	maximal response on decreasing receptor population (dominant tendency), in words [3]	pEC50 [3, 22]	pEC50 [3, 23]	further results
CN(C)C(CNC(=O)Cc1ccc2c(c1)OCCO2)c1ccccc1 (single isomer, unassigned) [Compound 4]	2.8	lower bARR2 recruitment as compared to morphine	better efficacy than racemic compound 1	4.96	24.6	45.02	4.92	4.70	82.8	5.03	100	17.23	108.1	5.00	20.59	5.06	4.8				Emax [3, 18]: 100%; β-arrestin pathway activation / bARR2 recruitment, in words [4]: lower bARR2 recruitment as compared to morphine
CN(C)C(CNC(=O)Cc1ccc2c(c1)OCCO2)c1ccccc1 (single isomer, unassigned) [Compound 5]	5.7		superior efficacy-dominant properties	5.61		77.98	5.39	6.53		5.78		79.38	65.27	5.06	111	5.13	23.1	superior efficacy-dominant properties	5.21	5.18	OPRM Gi β-FNA (+) Emax (%) [2, 19]: 21.91%; OPRM Gi β-FNA (−) Emax (%) [2, 20]: 102%; OPRM Gi β-FNA (−) Emax (%) [2, 21]: 101.9%; OPRD Gi β-CNA (−) Emax (%) [3, 24]: 100%
CN1CCc2cc(C(CNC(=O)Nc3ccc(F)cc3)N(C)C)ccc21 (single isomer, unassigned) [Compound 6]		lower bARR2 recruitment as compared to morphine	resistant to decreasing spare receptors; also recorded: showed efficacy dominance on both types of opioid receptors; also recorded: resistant to decreasing spare receptor-induced tendency; also recorded: maintained a higher maximal response as compared to compound 2	5.61	77		5.07	6.29	106	5.73	100			4.87	128.1	5.37	8.5	resistant to decreasing spare receptors; also recorded: showed efficacy dominance on both types of opioid receptors; also recorded: resistant to decreasing spare receptor-induced tendency; also recorded: maintained a higher maximal response as compared to compound 2	4.32	5.05	Emax ([1]; Example 3, Tables 5-7, read-out: OPRD β-ARR2 Emax (%)): 10.5%; Emax ([2]; addition of β-FNA, repeated dominant assay, Example 4, Tables 8-10, read-out: OPRM Gi β-FNA (+) Emax (%)): 90.1%; Emax ([3]; addition of β-CNA, Example 3, Tables 5-7, read-out: OPRD Gi β-CNA (+) Emax (%)): 119%; Emax ([3]; addition of β-CNA, repeated dominant assay, Example 4, Tables 8-10, read-out: OPRD Gi β-CNA (+) Emax (%)): 81.4%; Emax [3, 18]: 102%; β-arrestin pathway activation / bARR2 recruitment, in words [4]: lower bARR2 recruitment as compared to morphine
CN1CCc2cc(C(CNC(=O)Nc3ccc(F)cc3)N(C)C)ccc21 (single isomer, unassigned) [Compound 7]	6.4		resistant to decreasing spare receptors; also recorded: showed efficacy dominance on both types of opioid receptors; also recorded: resistant to decreasing spare receptor-induced tendency; also recorded: maintained a higher maximal response as compared to compound 2	6.14		90.07	5.16	7.38		5.64		100.2	81.99	5.46	98.3	5.98	22.0	resistant to decreasing spare receptors; also recorded: showed efficacy dominance on both types of opioid receptors; also recorded: resistant to decreasing spare receptor-induced tendency; also recorded: maintained a higher maximal response as compared to compound 2	5.31	6.29	OPRM Gi β-FNA (+) Emax (%) [2, 19]: 85.93%; OPRM Gi β-FNA (−) Emax (%) [2, 20]: 95.81%; OPRM Gi β-FNA (−) Emax (%) [2, 21]: 100.9%; OPRD Gi β-CNA (−) Emax (%) [3, 24]: 100.2%
C[C@@H](NC(=O)[C@@H](N)Cc1ccc(O)cc1)C(=O)NCC(=O)N(C)[C@@H](Cc1ccccc1)C(=O)NCCO [DAMGO, [D-Ala^2, NMe-Phe^4, Gly-ol^5]-enkephalin, reference compound]			full agonist																		
C=CCN1C[C@H](C)N([C@H](c2ccc(C(=O)N(CC)CC)cc2)c2cccc(OC)c2)C[C@H]1C [SNC80, reference compound]																		full agonist			completeness of concentration-response curve, in words ([3]; OPRD system): produced a full concentration-response curve
